Activity calls are given as the source filed them.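 Rule for the calls: active = compounds giving half or more protection of infected cells from virus-caused growth loss, again on retest; inactive = the rest.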

This experiment relates to CEM cells HIV-1 protection, formazan growth assay. In words: NCI AIDS Antiviral Assay. The settings on record: for IC50: measured here: growth of uninfected CEM cells. The essentials:
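Protection of CEM cells against HIV-1 was scored from cell growth (soluble formazan) across five concentrations, with parallel uninfected cells. Lack of protection may reflect toxicity.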

Take `Cc1cc(C(O)CCCc2ccccc2)cc(C)c1O` (centres undefined): the EC50 was greater than 251 µM and the half-maximal inhibitory concentration (IC50) is 83.2 µM.

Turning to `CCOC(=O)/C(C#N)=C/c1coc2cc(C)cc(C)c2c1=O`, the EC50 was greater than 200 µM and the IC50 came out at 11 µM.

As to `c1ccc(C2=C(c3ccccc3)CSSC2)cc1`, the EC50 is greater than 69.2 µM and the IC50 is greater than 69.2 µM.

As for `Cc1nc2ccccc2nc1CC(=O)C(=O)Nc1ccc(Cl)cc1Cl`, the concentration giving a half-maximal response (EC50) is 302 µM and the IC50 amounted to 347 µM.

On to `O=C1c2ccccc2N(O)C1(c1ccccc1)C1CCCC=C1N1CCOCC1` (centres undefined), for which the outcome was inactive.

`Cc1ccc2c(n1)C(N1CCOCC1)=CC(=O)C2=O`: the result was inactive.

`[N-]=[N+]=Nc1cc(=O)oc2ccccc12`: the EC50 was greater than 200 µM and the IC50 is 117 µM.

Consider `COC(=O)C1(C(=O)OC)CC2=C(S(=O)(=O)c3ccccc3)C[C@H](C#N)[C@H]2C1`, for which the EC50 was greater than 200 µM and the 50% inhibitory concentration (IC50) turned out to be 58.9 µM.

As to `CC1CCCC(C)[N+]1=C(Nc1cccc(Cl)c1)c1ccccc1` (centres undefined), the EC50 is greater than 200 µM and the IC50 came out at 105 µM.

In the case of `CC1=NN(C(=O)CC(=O)Nc2cccc(Cl)c2)C(=O)C1N=Nc1ccc(S(N)(=O)=O)cc1` (centres undefined), the EC50 was greater than 55 µM and the concentration for half-maximal inhibition (IC50) was greater than 55 µM.

For the molecule `CCCCN1C=CN2c3nc4cc(C)c(C)cc4n3C(C(=O)OC)=C(C(=O)OC)C12` (centres undefined), the result was inactive.

For the molecule `COC(=O)C1CCCCCCCCCCC12SCCCS2` (centres undefined), the EC50 is greater than 200 µM and the IC50 is greater than 200 µM.

Consider `NS(=O)(=O)c1ccccc1C(=O)N/N=C(\c1nc2ccc([N+](=O)[O-])cc2[nH]c1=O)C(O)c1ccc([N+](=O)[O-])cc1` (centres undefined), for which the EC50 is greater than 120 µM and the concentration for half-maximal inhibition (IC50) came to 107 µM.

For the molecule `Cc1cc(C)c2c(c1)sc1nncn12`, the result was inactive.

Regarding `Cn1c(=O)n2c(-c3ccccc3)c(-c3ccccc3)n2c1=O`, the EC50 was greater than 200 µM and the half-inhibitory concentration (IC50) came to 102 µM.

As to `Cc1cc(C)c(-n2[nH]c(=O)n(C)c2=O)c(C)c1`, the EC50 was greater than 200 µM and the half-inhibitory concentration (IC50) is greater than 200 µM.

Take `c1ccc2c(c1)nc1n2C2CCC(C2)N1` (centres undefined): the EC50 is greater than 200 µM and the IC50 is greater than 200 µM.

Take `CCc1cc[c]([Sb](=[O])([OH])[OH])cc1`: the outcome was inactive.

For `CC1(C)CCCOc2ccc(C(=O)O)cc21`, the EC50 is greater than 200 µM and the IC50 was greater than 200 µM.

As for `O=c1ccn([C@H]2CSC[C@@H](CO)C2)c(=O)[nH]1`, the EC50 was greater than 1020 µM and the IC50 is greater than 1020 µM.

Regarding `Cc1cc(OC(=O)NCn2cc(-c3ccccc3)nn2)ccc1Cl`, the EC50 was greater than 200 µM and the IC50 was 95.5 µM.

Turning to `COC(=O)C1(Cc2ccc3c(c2)CCC3)Cc2ccccc2C1O` (centres undefined), the EC50 is greater than 200 µM and the IC50 stood at 26.9 µM.

With `COc1ccc(N2C(=O)/C(=C/c3ccc(N(CCC#N)CCC#N)cc3)N=C2c2ccccc2)c(OC)c1`, the EC50 was greater than 200 µM and the IC50 was found to be 50.1 µM.

On to `CC(=O)OCCCCn1cnc2c(Cl)nc(Nc3ccccc3)nc21`, for which the EC50 was greater than 200 µM and the IC50 was greater than 200 µM.

Take `Cc1nsnc1CCO`: the EC50 is greater than 1740 µM and the IC50 was greater than 1740 µM.

As to `FC1(F)SC2C3CCC(C3)C2C1(F)F` (centres undefined), the outcome was inactive.

With `Cc1cc(N(CCC#N)CCC#N)ccc1N=Nc1ccc(S(N)(=O)=O)cc1`, the EC50 was greater than 170 µM and the IC50 is greater than 170 µM.

Regarding `Cc1c(Cc2ccccc2)n(C(C)OCCO)c(=O)[nH]c1=O` (centres undefined), the EC50 is greater than 200 µM and the IC50 is greater than 200 µM.

Take `C#Cc1cccc(N2C(=O)c3c(c(-c4ccccc4)c(-c4ccc(Cc5ccc(-c6c(-c7ccccc7)c7c(c(-c8ccccc8)c6-c6ccccc6)C(=O)N(c6cccc(C#C)c6)C7=O)cc5)cc4)c(-c4ccccc4)c3-c3ccccc3)C2=O)c1`: the EC50 is greater than 23.4 µM and the concentration for half-maximal inhibition (IC50) is greater than 23.4 µM.

Regarding `Cc1ccc(/C=C/C(=O)c2sc(-n3nc(-c4ccccc4)cc3-c3ccccc3)nc2C)cc1`, the EC50 is greater than 11.2 µM and the IC50 was greater than 11.2 µM.
